Data on 1 compound can be found in US20080161188A1, “HERBICIDAL COMPOSITIONS AND METHODS OF CONTROLLING WEED GROWTH” (priority 2006, published 2008).

The test deals with turf (perennial rye grass, fescue, crabgrass, and several unidentified broad-leaf weeds). The experiment in a line: Field test plots: rate of control of turf by ready to use glyphosate composition with fatty acid additive. The conditions noted are these: versus the same compositions without (water control) short chain fatty acid. The class given is in vivo.

Description: This composition included all of the water necessary to apply for weed control and was not further diluted.
The test plots included several species including perennial rye grass, fescue, crabgrass, and several unidentified broad-leaf weeds. As this is a non-selective test, all growing plants (monocot and broadleaf) were evaluated as one species referred to as “turf.” Test plots were 4-ft by 60 ft rectangles with untreated check plots to either side. Evaluations were made at 3 days, 7 days and 14 days by visually inspecting each plot comparing health and vigor of turf (color and mortality) to adjacent untreated controls.

As to `CC(O)C(=O)O` (stereo not shown) [Lactic acid, lactic acid], the “enhancing the rate of weed control in herbicide compositions” value is given as “particularly effective”.
